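Tested at 5 concentrations; 48 h exposure; 96-well plates; endpoints linearly interpolated, else capped at highest concentration. The concentration for 50% growth inhibition is given as GI50. TGI: total growth inhibition.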
How the values were obtained:
Assay in all cases: growth of human tumour cells (NCI), 48 h
BT-549 breast = test system: BT-549 breast
TK-10 renal = test system: TK-10 renal
IGROV1 ovarian = test system: IGROV1 ovarian
RPMI-8226 leukemia = test system: RPMI-8226 leukemia
NCI-H460 lung = test system: NCI-H460 lung
U251 CNS = test system: U251 CNS
RXF 393 renal = test system: RXF 393 renal
SK-MEL-5 melanoma = test system: SK-MEL-5 melanoma
OVCAR-8 ovarian = test system: OVCAR-8 ovarian
SN12C renal = test system: SN12C renal

SMILES | GI50 (BT-549 breast) [µM] | TGI (BT-549 breast) [µM] | GI50 (TK-10 renal) [µM] | TGI (TK-10 renal) [µM] | GI50 (IGROV1 ovarian) [µM] | TGI (IGROV1 ovarian) [µM] | GI50 (RPMI-8226 leukemia) [µM] | TGI (RPMI-8226 leukemia) [µM] | GI50 (NCI-H460 lung) [µM] | TGI (NCI-H460 lung) [µM] | GI50 (U251 CNS) [µM] | TGI (U251 CNS) [µM] | GI50 (RXF 393 renal) [µM] | TGI (RXF 393 renal) [µM] | GI50 (SK-MEL-5 melanoma) [µM] | TGI (SK-MEL-5 melanoma) [µM] | GI50 (OVCAR-8 ovarian) [µM] | TGI (OVCAR-8 ovarian) [µM] | GI50 (SN12C renal) [µM] | TGI (SN12C renal) [µM]
Nc1nc(Nc2ccc(C3CCC(N4CCOCC4)CC3)cc2)nn1-c1ccccn1 (centres undefined) | 2.52 | 6.54 | > 21.5 | > 100 | 3.57 | > 100 | 2.57 | 6.1 | 4.59 | > 69.2 | 5.05 | > 100 | 2.03 | 5.77 | 20.8 | > 88.3 | 11.6 | > 100 | 2.4 | > 100
COc1cc(C(=O)NC2CCN(C)CC2)c(F)cc1Nc1ncc2c(n1)N(C1CCCC1)CC(F)(F)C(=O)N2C | 1.87 | 20 |  | 12.6 | < 0.0217 | 14.5 | < 0.022 | 3.26 | < 0.0168 | 12.4 | < 0.0204 | 14.5 | < 0.0169 | 15.2 | < 0.022 | 2.32 | 0.0338 | 18.7 | 0.0604 | 14.4
Cn1cc(C2=C(c3cccc(OCC(O)CO)c3)C(=O)NC2=O)c2ccccc21 (centres undefined) | > 25 | > 25 | > 25 | > 25 | > 25 | > 25 | > 25 | > 25 | > 25 | > 25 | > 25 | > 25 | > 25 | > 25 | > 25 | > 25 | > 25 | > 25 | > 25 | > 25
CCCCN(CCCC)c1ccc(C(=N)c2ccc(N(CCCC)CCCC)cc2)cc1 | 1.42 | 2.89 | 0.453 | 1.53 | 1.04 | 2.66 | 0.396 | 1.88 | 0.773 | 2.13 | 0.351 | 1.28 | 0.545 | 1.62 | 0.547 | 1.61 | 0.396 | 1.37 | 0.35 | 1.44
O=C(Nc1ccc(Cl)cc1)Nc1ccc(Nc2nncc3ccccc23)cc1 | 2.15 | 9.28 | 5.03 | 24.4 | 2.52 | 30.7 | 2.5 | 8.75 | 2.91 | 11.9 | 2.86 | 10.3 | 4.28 | 21.4 | 2.31 | 6.82 | 3.12 | 12.4 | 4.58 | 37.2
CS[C@]12C(=O)C[C@@]3(C)[C@@H](CC[C@]3(O)C(=O)CO)[C@@H]1CCC1=CC(=O)CC[C@@]12C |  | > 100 |  | > 100 |  | > 100 |  | > 100 |  | > 100 |  | > 100 |  | > 100 |  | > 100 |  | > 100 |  | > 100
O=C1c2c(O)cccc2C(C2OC(CO)C(O)C(O)C2O)c2cc(CO)cc(O)c21 (centres undefined) |  | > 100 |  | > 100 |  | > 100 |  | > 100 |  | > 100 |  | > 100 |  | > 100 |  | > 100 |  | > 100 |  | > 100

— PubChem BioAssay (NCI)
